Data set [1] deals with T1, human calcitonin receptor (Homo sapiens, UniProt P30988).
T1 construct: expressed in transfected cells; host or cells: BHK570
T1 sequence (P30988 25-474): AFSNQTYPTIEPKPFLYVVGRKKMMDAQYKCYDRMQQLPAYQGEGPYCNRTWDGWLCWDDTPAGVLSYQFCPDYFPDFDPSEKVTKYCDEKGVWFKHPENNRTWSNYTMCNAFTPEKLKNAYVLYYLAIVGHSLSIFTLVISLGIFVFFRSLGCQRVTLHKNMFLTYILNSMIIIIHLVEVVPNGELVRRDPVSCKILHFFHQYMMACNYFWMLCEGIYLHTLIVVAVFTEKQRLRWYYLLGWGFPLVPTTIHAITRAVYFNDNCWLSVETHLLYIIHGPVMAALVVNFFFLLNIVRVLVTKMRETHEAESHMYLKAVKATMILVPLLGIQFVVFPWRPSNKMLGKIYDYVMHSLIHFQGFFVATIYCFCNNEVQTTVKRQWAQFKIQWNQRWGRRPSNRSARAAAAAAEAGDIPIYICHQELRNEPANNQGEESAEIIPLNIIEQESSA
Nature of the data set: Assay (II)a functional CRE-luciferase assay, human calcitonin receptor. In kind it is cell-based. As to conditions: Table 7; human calcitonin (CTa) receptor.

Data set [2] can be described thus: Assay (IV) determination of solubility. In kind it is physicochemical. Put shortly: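 Polypeptide in water (~500 nmol/ml stock) was mixed 1:1 with 100 mM buffers from pH 3.0 to 8.0 (glycylglycine pH 3.0–5.0; bistrispropane pH 6.0–8.0). After 18 hours at room temperature, samples were centrifuged and the polypeptide remaining in solution was quantified by HPLC.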

Data set [3] deals with T2, human amylin receptor (amylin 3(a) receptor: human calcitonin receptor + RAMP-3) (Homo sapiens, UniProt O60896+P30988).
T2 construct: expressed in transfected cells; host or cells: BHK570
T2 sequence (P30988 25-474): T1 sequence (P30988 25-474)
T2 sequence (O60896 24-148 partner): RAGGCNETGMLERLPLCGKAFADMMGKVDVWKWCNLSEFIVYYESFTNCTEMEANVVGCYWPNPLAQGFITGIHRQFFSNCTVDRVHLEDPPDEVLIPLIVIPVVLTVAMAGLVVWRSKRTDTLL
The experiment in a line: Assay (II)a functional CRE-luciferase assay, human amylin receptor. In kind it is cell-based. The note with it: Table 2; BHK amylin 3(a)-receptor/CRE-luc cells.

[4] abbreviates: bistrispropane buffer, pH 6, pH 6.0, read-out: Solubility pH 6.0.
The mark [5] stands for this setting: bistrispropane buffer, pH 6.5, pH 6.5, read-out: Solubility pH 6.5.
[6] abbreviates: bistrispropane buffer, pH 7, pH 7.0, 18 hours at room temperature, Table 3, read-out: Solubility pH 7.0.
Where [7] appears, read: bistrispropane buffer, pH 7, pH 7.0, read-out: Solubility pH 7.0.
Where [8] appears, read: bistrispropane buffer, pH 7.5, pH 7.5, read-out: Solubility pH 7.5.
Where [9] appears, read: bistrispropane buffer, pH 8, pH 8.0, read-out: Solubility pH 8.0.
[10] abbreviates: glycylglycine buffer, pH 3, pH 3.0, read-out: Solubility pH 3.0.
Where [11] appears, read: glycylglycine buffer, pH 4, pH 4.0, 18 hours at room temperature, Table 2, read-out: Solubility pH 4.0.
The mark [12] stands for this setting: glycylglycine buffer, pH 4, pH 4.0, read-out: Solubility pH 4.0.
The mark [13] stands for this setting: glycylglycine buffer, pH 5, pH 5.0, read-out: Solubility pH 5.0.

pEC50: −log10 of the molar value. In brackets after ≈: the same amount, converted by molar mass. Like-named read-outs stand apart in the source and are kept apart here. Starred links: 1 amine or outer side, 2 acyl side, 3 side chain; linkers in the order of their positions; H or OH if unused. Positions of bridges follow the written chain, without caps; N, C: chain ends. Residues, ends and D or L forms follow the SMILES beside them. *: point of attachment. C20 diacid = O=C(O)CCCCCCCCCCCCCCCCCCC(=O)*; C18 diacid = O=C(O)CCCCCCCCCCCCCCCCC(=O)*; γGlu = O=C(O)[C@H](CCC(=O)[*:2])N[*:1] Bounds are passed on as bounds.

Here are results for 4 compounds from US8722849B2, “Polypeptides” (Novo Nordisk A/S, priority 2011, dated 2014).

As to `CC[C@H](C)[C@H](NC(=O)[C@@H]1CCCN1C(=O)CNC(=O)[C@H](Cc1ccccc1)NC(=O)[C@H](CC(N)=O)NC(=O)[C@H](CC(N)=O)NC(=O)[C@H](CO)NC(=O)[C@H](CO)NC(=O)[C@H](CCCNC(=N)N)NC(=O)[C@H](Cc1c[nH]cn1)NC(=O)[C@H](CC(C)C)NC(=O)[C@H](Cc1ccccc1)NC(=O)[C@H](CCC(=O)O)NC(=O)[C@H](C)NC(=O)[C@H](CC(C)C)NC(=O)[C@H](CCCNC(=N)N)NC(=O)[C@H](CCC(N)=O)NC(=O)[C@@H](NC(=O)[C@H](C)NC(=O)[C@@H]1CSSC[C@H](NC(=O)[C@H](CCC(=O)O)NC(=O)CC[C@H](NC(=O)CCCCCCCCCCCCCCCCCCC(=O)O)C(=O)O)C(=O)N[C@@H](CC(N)=O)C(=O)N[C@@H]([C@@H](C)O)C(=O)N[C@@H](C)C(=O)N[C@@H]([C@@H](C)O)C(=O)N1)[C@@H](C)O)C(=O)N[C@@H](CC(C)C)C(=O)N1CCC[C@H]1C(=O)N1CCC[C@H]1C(=O)N[C@H](C(=O)N[C@@H](CC(N)=O)C(=O)N[C@H](C(=O)NCC(=O)N[C@@H](CO)C(=O)N[C@@H](CC(N)=O)C(=O)N[C@H](C(=O)N1CCC[C@H]1C(N)=O)[C@@H](C)O)C(C)C)[C@@H](C)O` [Example 10, N-alpha-[(S)-4-Carboxy-4-(19-carboxynonadecanoylamino)butyryl]-[Glu1,Glu14,His17,Arg18,Pro37]-pramlintide] ({C20 diacid-γGlu}-ECNTATCATQRLAEFLHRSSNNFGPILPPTNVGSNTP-NH2; disulfide 2-7), the negative-log EC50 (pEC50) is 10.06 in data set [1] and 10.08 in data set [3]. Also, the solubility at 18 h in data set [2] (setting [4]), in data set [2] (setting [5]), in data set [2] (setting [6]), in data set [2] (setting [7]), in data set [2] (setting [8]) and in data set [2] (setting [9]) was more than 200 µM each time. For the same compound, the solubility at 18 h in data set [2] (setting [10]), in data set [2] (setting [11]), in data set [2] (setting [12]) and in data set [2] (setting [13]) was more than 200 µM each time.

With `CC[C@H](C)[C@H](NC(=O)[C@@H]1CCCN1C(=O)CNC(=O)[C@H](Cc1ccccc1)NC(=O)[C@H](CC(N)=O)NC(=O)[C@H](CC(N)=O)NC(=O)[C@H](CO)NC(=O)[C@H](CO)NC(=O)[C@H](Cc1c[nH]cn1)NC(=O)[C@H](Cc1c[nH]cn1)NC(=O)[C@H](CC(C)C)NC(=O)[C@H](Cc1ccccc1)NC(=O)[C@H](CCC(=O)O)NC(=O)[C@H](C)NC(=O)[C@H](CC(C)C)NC(=O)[C@H](CCCNC(=N)N)NC(=O)[C@H](CCC(N)=O)NC(=O)[C@@H](NC(=O)[C@H](C)NC(=O)[C@@H]1CSSC[C@H](NC(=O)[C@H](CCCCN)NC(=O)CC[C@H](NC(=O)CCCCCCCCCCCCCCCCC(=O)O)C(=O)O)C(=O)N[C@@H](CC(N)=O)C(=O)N[C@@H]([C@@H](C)O)C(=O)N[C@@H](C)C(=O)N[C@@H]([C@@H](C)O)C(=O)N1)[C@@H](C)O)C(=O)N[C@@H](CC(C)C)C(=O)N1CCC[C@H]1C(=O)N1CCC[C@H]1C(=O)N[C@H](C(=O)N[C@@H](CC(N)=O)C(=O)N[C@H](C(=O)NCC(=O)N[C@@H](CO)C(=O)N[C@@H](CC(N)=O)C(=O)N[C@H](C(=O)N[C@@H](Cc1ccc(O)cc1)C(N)=O)[C@@H](C)O)C(C)C)[C@@H](C)O` [Example 46, N-alpha-[(S)-4-Carboxy-4-(17-carboxyheptadecanoylamino)butyryl]-[Glu14,His17]-pramlintide] ({C18 diacid-γGlu}-KCNTATCATQRLAEFLHHSSNNFGPILPPTNVGSNTY-NH2; disulfide 2-7 (inferred); C-terminus assumed), the pEC50 is 10.10 in data set [1] and 10.33 in data set [3]. The solubility at 18 h is more than 200 µM in data set [2] (setting [4]); more than 200 µM in data set [2] (setting [5]); 169 µM (≈ 748 µg/mL) in data set [2] (setting [6]); 169 µM (≈ 748 µg/mL) in data set [2] (bistrispropane buffer, pH 7, pH 7.0, Table 8, read-out: Solubility pH 7.0); 169 µM (≈ 748 µg/mL) in data set [2] (setting [7]); 197 µM (≈ 872 µg/mL) in data set [2] (setting [8]). In addition, the solubility at 18 h in data set [2] (setting [9]), in data set [2] (setting [10]), in data set [2] (setting [11]), in data set [2] (setting [12]) and in data set [2] (setting [13]) was more than 200 µM each time.

Turning to `CC[C@H](C)[C@H](NC(=O)[C@@H]1CCCN1C(=O)CNC(=O)[C@H](Cc1ccccc1)NC(=O)[C@H](CC(N)=O)NC(=O)[C@H](CC(N)=O)NC(=O)[C@H](CO)NC(=O)[C@H](CO)NC(=O)[C@H](CCCNC(=N)N)NC(=O)[C@H](Cc1c[nH]cn1)NC(=O)[C@H](CC(C)C)NC(=O)[C@H](Cc1ccccc1)NC(=O)[C@H](CCC(=O)O)NC(=O)[C@H](C)NC(=O)[C@H](CC(C)C)NC(=O)[C@H](CCCNC(=N)N)NC(=O)[C@H](CCC(N)=O)NC(=O)[C@@H](NC(=O)[C@H](C)NC(=O)[C@@H]1CSSC[C@H](NC(=O)[C@H](Cc2c[nH]cn2)NC(=O)CC[C@H](NC(=O)CCCCCCCCCCCCCCCCCCC(=O)O)C(=O)O)C(=O)N[C@@H](CC(N)=O)C(=O)N[C@@H]([C@@H](C)O)C(=O)N[C@@H](C)C(=O)N[C@@H]([C@@H](C)O)C(=O)N1)[C@@H](C)O)C(=O)N[C@@H](CC(C)C)C(=O)N1CCC[C@H]1C(=O)N1CCC[C@H]1C(=O)N[C@H](C(=O)N[C@@H](CC(N)=O)C(=O)N[C@H](C(=O)NCC(=O)N[C@@H](CO)C(=O)N[C@@H](CC(N)=O)C(=O)N[C@H](C(=O)N[C@@H](Cc1ccc(O)cc1)C(N)=O)[C@@H](C)O)C(C)C)[C@@H](C)O` [Example 1, N-alpha-[(S)-4-Carboxy-4-(19-carboxynonadecanoylamino)butyryl]-[His1,Glu14,His17,Arg18]-pramlintide] ({C20 diacid-γGlu}-HCNTATCATQRLAEFLHRSSNNFGPILPPTNVGSNTY-NH2; disulfide 2-7 (inferred)), the pEC50 was 9.82 in data set [1] and 10.03 in data set [3]. The solubility at 18 h in data set [2] (setting [4]) is 52 µM (≈ 233 µg/mL); in data set [2] (setting [5]), 16 µM (≈ 71.7 µg/mL); in data set [2] (setting [7]), 15 µM (≈ 67.3 µg/mL); in data set [2] (setting [8]), 58 µM (≈ 260 µg/mL); in data set [2] (setting [9]), 138 µM (≈ 619 µg/mL); in data set [2] (setting [10]) it was more than 200 µM. For the same compound, the solubility at 18 h in data set [2] (setting [11]), in data set [2] (setting [12]) and in data set [2] (setting [13]) was more than 200 µM in each case.

Take `CC[C@H](C)[C@H](NC(=O)[C@@H]1CCCN1C(=O)CNC(=O)[C@H](Cc1ccccc1)NC(=O)[C@H](CC(N)=O)NC(=O)[C@H](CC(N)=O)NC(=O)[C@H](CO)NC(=O)[C@H](CO)NC(=O)[C@H](Cc1c[nH]cn1)NC(=O)[C@H](Cc1c[nH]cn1)NC(=O)[C@H](CC(C)C)NC(=O)[C@H](Cc1ccccc1)NC(=O)[C@H](CCC(=O)O)NC(=O)[C@H](C)NC(=O)[C@H](CC(C)C)NC(=O)[C@H](CCCNC(=N)N)NC(=O)[C@H](CCC(N)=O)NC(=O)[C@@H](NC(=O)[C@H](C)NC(=O)[C@@H]1CSSC[C@H](NC(=O)[C@H](Cc2c[nH]cn2)NC(=O)[C@H](Cc2c[nH]cn2)NC(=O)[C@H](Cc2c[nH]cn2)NC(=O)CC[C@H](NC(=O)CCCCCCCCCCCCCCCCCCC(=O)O)C(=O)O)C(=O)N[C@@H](CCCNC(=N)N)C(=O)N[C@@H]([C@@H](C)O)C(=O)N[C@@H](C)C(=O)N[C@@H]([C@@H](C)O)C(=O)N1)[C@@H](C)O)C(=O)N[C@@H](CC(C)C)C(=O)N1CCC[C@H]1C(=O)N1CCC[C@H]1C(=O)N[C@H](C(=O)N[C@@H](CC(N)=O)C(=O)N[C@H](C(=O)NCC(=O)N[C@@H](CO)C(=O)N[C@@H](CC(N)=O)C(=O)N[C@H](C(=O)N[C@@H](Cc1ccc(O)cc1)C(N)=O)[C@@H](C)O)C(C)C)[C@@H](C)O` [Example 22, N-alpha-[(S)-4-Carboxy-4-(19-carboxynonadecanoylamino)butyryl]-His-His-[His1,Arg3,Glu14,His17]-pramlintide] ({C20 diacid-γGlu}-HHHCRTATCATQRLAEFLHHSSNNFGPILPPTNVGSNTY-NH2; disulfide 4-9 (inferred)): the figures for the pEC50 in data set [1] and in data set [3] were 9.80 and 10.01, respectively. Besides, the solubility at 18 h in data set [2] (setting [4]) is more than 200 µM; in data set [2] (setting [5]), 57 µM (≈ 273 µg/mL); in data set [2] (setting [7]), 2 µM (≈ 9.56 µg/mL); in data set [2] (setting [8]), 1 µM (≈ 4.78 µg/mL); in data set [2] (setting [9]), 3 µM (≈ 14.3 µg/mL); in data set [2] (setting [10]), more than 200 µM. For the same compound, the solubility at 18 h in data set [2] (setting [11]), in data set [2] (setting [12]) and in data set [2] (setting [13]) was more than 200 µM throughout.
